Assay results from the NIST ThermoML archive (doi:10.1021/acs.jced.7b00694).

Assay: xn = mol fraction of the nth substance listed
Settings: Gas, Buoyancy - hydrostatic balance with magnetic suspension - one sinker

[HH] [hydrogen] + N#N
Settings	mass density [kg/m3]
240.05 K, 998 kPa, x2 = 0.95	13.46
240.05 K, 1997 kPa, x2 = 0.95	27.15
240.05 K, 2999 kPa, x2 = 0.95	41.055
240.05 K, 3998 kPa, x2 = 0.95	55.055
240.05 K, 4998 kPa, x2 = 0.95	69.19
240.05 K, 5999 kPa, x2 = 0.95	83.412
240.05 K, 7000 kPa, x2 = 0.95	97.671
240.05 K, 8000 kPa, x2 = 0.95	111.894
240.05 K, 9001 kPa, x2 = 0.95	126.079
240.05 K, 10004 kPa, x2 = 0.95	140.187
240.05 K, 11004 kPa, x2 = 0.95	154.093
240.05 K, 12006 kPa, x2 = 0.95	167.817
240.05 K, 13008 kPa, x2 = 0.95	181.315
240.05 K, 14010 kPa, x2 = 0.95	194.555
240.05 K, 15014 kPa, x2 = 0.95	207.511
240.05 K, 16011 kPa, x2 = 0.95	220.048
240.05 K, 17007 kPa, x2 = 0.95	232.236
240.05 K, 18019 kPa, x2 = 0.95	244.268
240.05 K, 19018 kPa, x2 = 0.95	255.783
240.05 K, 19977 kPa, x2 = 0.95	266.493
240.07 K, 998 kPa, x2 = 0.9	12.789
240.07 K, 999 kPa, x2 = 0.5001	7.515
240.07 K, 1998 kPa, x2 = 0.9	25.761
240.07 K, 2000 kPa, x2 = 0.5001	14.997
240.07 K, 3000 kPa, x2 = 0.9	38.902
240.07 K, 3998 kPa, x2 = 0.9	52.1
240.07 K, 3999 kPa, x2 = 0.5001	29.835
240.07 K, 4998 kPa, x2 = 0.5001	37.187
240.07 K, 4998 kPa, x2 = 0.9	65.397
240.07 K, 5999 kPa, x2 = 0.5001	44.484
240.07 K, 5999 kPa, x2 = 0.9	78.743
240.07 K, 6999 kPa, x2 = 0.5001	51.715
240.07 K, 6999 kPa, x2 = 0.9	92.089
240.07 K, 8000 kPa, x2 = 0.9	105.416
240.07 K, 9001 kPa, x2 = 0.9	118.665
240.07 K, 10003 kPa, x2 = 0.9	131.826
240.07 K, 11003 kPa, x2 = 0.9	144.806
240.07 K, 12006 kPa, x2 = 0.9	157.633
240.07 K, 13007 kPa, x2 = 0.9	170.235
240.07 K, 14004 kPa, x2 = 0.9	182.528
240.07 K, 15010 kPa, x2 = 0.9	194.68
240.07 K, 16012 kPa, x2 = 0.9	206.497
240.07 K, 17016 kPa, x2 = 0.9	218.039
240.07 K, 18009 kPa, x2 = 0.9	229.14
240.07 K, 19021 kPa, x2 = 0.9	240.134
240.07 K, 19857 kPa, x2 = 0.9	248.956
240.08 K, 2989 kPa, x2 = 0.5001	22.354
240.08 K, 7999 kPa, x2 = 0.5001	58.867
240.08 K, 8999 kPa, x2 = 0.5001	65.94
